Here are results for one substance from patent US20090047742A1 (priority 2005, published 2009).

The test system of the assay is activated caspase-3 in iBMK cells. The experiment in a line: immunofluorescence of activated caspase-3 in iBMK cells. The assay is classed as cell-based, mouse. The procedure:
W2, D3, X2 and K1 cells co-transfected by electroporation with a combination of plasmids pcDNA6/His/lacZ with pcDNA4/TO/mazF or pcDNA3 were grown on glass coverslips for 24 hr and fixed in 100% methanol for 10 min at −20° C. After blocking in 1% BSA-PBS for 1 hr at 37° C., cells on coverslips were incubated with anti-active caspase-3 rabbit polyclonal antibody and anti-Xpress mouse monoclonal antibody (Invitrogen, Carlsbad, Calif.) for 1 hr at 37° C. followed by incubation with rhodamine-conjugated anti-rabbit IgG and FITC-conjugated anti-mouse IgG antibody for 1 hr at 37° C. Staining was visualized by a Nikon FXA microscope equipped with epifluorescence optics (Nikon Inc., Garden City, N.Y.). The percentage of cells positive for active caspase-3 was determined by scoring 50-100 cells on each coverslip.

“MazF: E. coli toxin; sequence specific endoribonuclease (mRNA interferase) cleaving single-stranded RNAs at ACA sequences; expressed from plasmid pcDNA4/TO/mazF”: for the setting “D3 and K1 cells transiently expressing MazF”, the “cells with activated caspase-3” value is given as below 0.1%. The active-caspase-3 positive cells (W2 cells transiently expressing MazF) is 58.1% and the active-caspase-3 positive cells (X2 cells transiently expressing MazF) is 47.2%.
